Results published in US20200345049A1, “COMPOSITIONS” (Givaudan, S.A., priority 2017, published 2020).
“Also recorded” adds a separate entry of the source.

Tests used:
[1] = Sweetness relative to sucrose; type: in vivo
Procedure: The term “sucrose equivalence” refers to the equivalence in sweetness of a composition containing at least one non-sucrose sweetener to a reference sucrose solution. […] Other non-sucrose sweeteners may then be tasted at a series of dilutions to determine the concentration of the non-sucrose sweetener that is as sweet (i.e. isosweet) to a given sucrose reference. The term “isosweet” refers to compositions that have equivalent sweetness. Typically, the sweetness of a given composition is measured with reference to a solution of sucrose. See “A Systematic Study of Concentration-Response Relationships of Sweeteners,” […]. Walters, […]. Booth, […]. Gibes, B. T. Carr, and L. M. Brands, in Sweeteners: Discovery, Molecular Design and Chemoreception, D. E. Walters, F. T. Orthoefer, and G. E. DuBois, Eds., American Chemical Society, Washington, D.C. (1991), pp 261-276.

[2] = test system: sweet sensitive taste panel of five experts (trained flavourists); assay: Taste evaluation of mogroside V / 11-O-mogroside V solutions in 5% (w/v) sucrose and 0.03% (w/v) citric acid; type: in vivo, human; details: compared to mogroside V alone
Description: Mogroside V and 11-O-mogroside V were isolated from extracts of Luo Han Guo using Agilent 1100 preparative HPLC system with a Phenomenex Luna C18 (2) column (5 μm, 210×21.4 mm), and combined to form solutions of various concentrations.
These solutions were combined with a solution containing 5% (w/v) sucrose and 0.03% (w/v) citric acid to give test samples and evaluated by a sweet sensitive taste panel of five experts (trained flavourists).

Which “Sweetness relative to sucrose” value ([1]; Example 2 results) does the source give for C[C@H](CC[C@@H](O[C@@H]1O[C@H](CO[C@@H]2O[C@H](CO)[C@@H](O)[C@H](O)[C@H]2O)[C@@H](O)[C@H](O)[C@H]1O[C@@H]1O[C@H](CO)[C@@H](O)[C@H](O)[C@H]1O)C(C)(C)O)[C@H]1CC[C@@]2(C)[C@H]3CC=C4[C@@H](CC[C@H](O[C@@H]5O[C@H](CO[C@@H]6O[C@H](CO)[C@@H](O)[C@H](O)[C@H]6O)[C@@H](O)[C@H](O)[C@H]5O)C4(C)C)[C@]3(C)C(=O)C[C@]12C [11-O-mogroside V, 11-O-Mogroside V] here?
The value was 84 times sweeter than sucrose.

And the “Sweetness relative to sucrose” value ([1]; description)?
The value was “about 84 times the sweetness of sucrose”.

And the “Effect of blending 11-O-mogroside V with mogroside V on sweet quality” value [2]?
Its value is “improves the sweet quality compared to mogroside V alone; also recorded: helped to reduce sweetness lingering (weaken later sweetness taste) and reduce astringent and bitter aftertastes compared to mogroside V alone”.
